# According to ChEMBL document CHEMBL5634133, “Indirubin derivatives as bifunctional molecules inducing DNA damage and targeting PARP for the treatment of cancer” (Eur J Med Chem, 2023):
# The source made the active and inactive calls. The calls are words filed in the database; no cut-off is given here.
# Key:
# NCM460 = assay: Antiproliferative activity against human NCM460 cells assessed as inhibition of cell viability incubated for 72 hrs by CCK8 assay; assay type: functional, cell-based; conditions: NCM460, 72 h
# A549 = assay: Antiproliferative activity against human A549 cells assessed as inhibition of cell viability incubated for 72 hrs by CCK8 assay; assay type: functional, cell-based; conditions: A549, 72 h
# MCF7 = assay: Antiproliferative activity against human MCF7 cells assessed as inhibition of cell viability incubated for 72 hrs by CCK8 assay; assay type: functional, cell-based; conditions: MCF7, 72 h
# MV4-11 = assay: Antiproliferative activity against human MV4-11 cells assessed as inhibition of cell viability incubated for 72 hrs by CCK8 assay; assay type: functional, cell-based; conditions: MV4-11, 72 h
# HCT-116 [1] = assay: Antiproliferative activity against human HCT-116 cells assessed as inhibition of cell viability incubated for 72 hrs by CCK8 assay; assay type: functional, cell-based; conditions: HCT-116, 72 h
# [2] = target: T1, Poly [ADP-ribose] polymerase 1 (Homo sapiens, UniProt P09874); assay: Inhibition of PARP1 (unknown origin) incubated for 10 mins by chemiluminescence assay
# T1 sequence (P09874 whole entry): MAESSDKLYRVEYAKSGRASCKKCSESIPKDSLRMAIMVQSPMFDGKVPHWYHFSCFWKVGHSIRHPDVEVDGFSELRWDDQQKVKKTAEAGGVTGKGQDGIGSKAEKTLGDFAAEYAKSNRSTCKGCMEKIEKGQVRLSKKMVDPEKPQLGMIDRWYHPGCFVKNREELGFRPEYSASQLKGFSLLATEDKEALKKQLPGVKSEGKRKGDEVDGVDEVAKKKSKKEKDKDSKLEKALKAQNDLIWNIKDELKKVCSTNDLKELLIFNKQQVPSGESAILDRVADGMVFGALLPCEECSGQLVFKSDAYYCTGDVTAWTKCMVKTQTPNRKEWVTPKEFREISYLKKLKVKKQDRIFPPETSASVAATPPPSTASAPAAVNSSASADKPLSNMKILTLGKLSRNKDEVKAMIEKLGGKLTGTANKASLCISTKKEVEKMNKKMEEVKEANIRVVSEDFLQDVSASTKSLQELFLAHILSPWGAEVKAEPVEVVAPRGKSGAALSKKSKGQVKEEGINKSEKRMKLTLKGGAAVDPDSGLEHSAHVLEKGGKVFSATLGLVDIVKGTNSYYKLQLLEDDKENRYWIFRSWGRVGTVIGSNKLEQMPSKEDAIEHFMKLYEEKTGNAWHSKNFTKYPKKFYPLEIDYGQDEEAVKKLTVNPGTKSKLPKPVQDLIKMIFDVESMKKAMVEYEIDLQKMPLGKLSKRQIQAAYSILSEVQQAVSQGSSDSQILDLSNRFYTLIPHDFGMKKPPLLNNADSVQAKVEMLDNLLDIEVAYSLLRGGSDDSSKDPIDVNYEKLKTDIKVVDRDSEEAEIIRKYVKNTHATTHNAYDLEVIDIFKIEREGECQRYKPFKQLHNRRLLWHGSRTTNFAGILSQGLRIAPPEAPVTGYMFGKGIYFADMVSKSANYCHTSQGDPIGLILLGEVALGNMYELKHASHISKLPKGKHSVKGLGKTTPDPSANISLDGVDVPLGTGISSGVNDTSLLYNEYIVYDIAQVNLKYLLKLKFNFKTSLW
# HCT-116 [3] = assay: Antitumor activity against human HCT-116 cells xenografted in BALB/c nude mouse assessed as tumor growth inhibition at 20 mg/kg, ip administered for 14 days relative to control; assay type: functional; conditions: Mus musculus, HCT-116, 336 h, time 14 day, read-out: TGI
# HCT-116 [4] = assay: Antitumor activity against human HCT-116 cells xenografted in BALB/c nude mouse assessed as tumor growth inhibition at 10 mg/kg, ip administered for 14 days relative to control; assay type: functional; conditions: HCT-116, 336 h, time 14 day, read-out: TGI
# [5] = Half life in BALB/c mouse at 20 mg/kg, po and measured after 24 hrs by LC-MS/MS analysis; assay type: ADME, organism-based; conditions: in vivo
# [6] = Cmax in BALB/c mouse at 20 mg/kg, po and measured after 24 hrs by LC-MS/MS analysis; assay type: ADME, organism-based; conditions: in vivo
# [7] = AUC(0 to t) in BALB/c mouse at 20 mg/kg, po and measured after 24 hrs by LC-MS/MS analysis; assay type: ADME, organism-based; conditions: in vivo
# [8] = AUC(0 to infinity) in BALB/c mouse at 20 mg/kg, po and measured after 24 hrs by LC-MS/MS analysis; assay type: ADME, organism-based; conditions: in vivo
# [9] = Clearance in BALB/c mouse at 20 mg/kg, po and measured after 24 hrs by LC-MS/MS analysis; assay type: ADME, organism-based; conditions: in vivo
# HCT-116 [10] = assay: Antiproliferative activity against human HCT-116 cells assessed as inhibition of colony formation incubated for 48 hrs medium replaced with every 14 days by crystal violet staining based optical microscope; assay type: functional, cell-based; conditions: time 14.0 day
# HCT-116 [11] = assay: Antiproliferative activity against human HCT-116 cells assessed as decrease in number of EdU-positive cells at 0.25 to 1 uM incubated for 48 hrs in presence of EdU labeling agent by Hoechst staining based confocal microscopy; assay type: functional, cell-based; conditions: dose 0.25-1 µM
# [12] = target: T1, Poly [ADP-ribose] polymerase 1; assay: Inhibition of PARP1 in human HCT-116 cells assessed as inhibition of PARP-induced PARylation incubated for 48 hrs by Western blotting analysis; assay type: cell-based; conditions: dose 0.25-1 µM
# HCT-116 [13] = assay: Induction of DNA damage in human HCT-116 cells assessed as increase in gammaH2AX phosphorylation level incubated for 48 hrs by Western blotting analysis; assay type: functional, cell-based; conditions: dose 0.25-1 µM
# HCT-116 [14] = assay: Induction of DNA damage in human HCT-116 cells assessed as increase in gammaH2AX phosphorylation level incubated for 48 hrs by DAPI staining based immunofluorescence analysis; assay type: functional, cell-based; conditions: dose 0.25-1 µM
# HCT-116 [15] = assay: Induction of apoptosis in human HCT-116 cells assessed as viable cells at 0.25 uM incubated for 48 hrs by Annexin V-PE/7-AAD staining based flow cytometry analysis (reference value: 92.8 %); assay type: functional; conditions: read-out: Activity
# HCT-116 [16] = assay: Induction of apoptosis in human HCT-116 cells assessed as early apoptotic cells at 0.25 uM incubated for 48 hrs by Annexin V-PE/7-AAD staining based flow cytometry analysis (reference value: 6.78 %); assay type: functional
# HCT-116 [17] = assay: Induction of apoptosis in human HCT-116 cells assessed as late apoptotic cells at 0.25 uM incubated for 48 hrs by Annexin V-PE/7-AAD staining based flow cytometry analysis (reference value: 0.39 %); assay type: functional
# HCT-116 [18] = assay: Induction of apoptosis in human HCT-116 cells assessed as necrotic cells at 0.25 uM incubated for 48 hrs by Annexin V-PE/7-AAD staining based flow cytometry analysis (reference value: 0 %); assay type: functional
# HCT-116 [19] = assay: Induction of apoptosis in human HCT-116 cells assessed as viable cells at 0.5 uM incubated for 48 hrs by Annexin V-PE/7-AAD staining based flow cytometry analysis (reference value: 92.8 %); assay type: functional; conditions: read-out: Activity
# HCT-116 [20] = assay: Induction of apoptosis in human HCT-116 cells assessed as early apoptotic cells at 0.5 uM incubated for 48 hrs by Annexin V-PE/7-AAD staining based flow cytometry analysis (reference value: 6.78 %); assay type: functional
# HCT-116 [21] = assay: Induction of apoptosis in human HCT-116 cells assessed as late apoptotic cells at 0.5 uM incubated for 48 hrs by Annexin V-PE/7-AAD staining based flow cytometry analysis (reference value: 0.39 %); assay type: functional
# HCT-116 [22] = assay: Induction of apoptosis in human HCT-116 cells assessed as necrotic cells at 0.5 uM incubated for 48 hrs by Annexin V-PE/7-AAD staining based flow cytometry analysis (reference value: 0 %); assay type: functional
# HCT-116 [23] = assay: Induction of apoptosis in human HCT-116 cells assessed as viable cells at 1 uM incubated for 48 hrs by Annexin V-PE/7-AAD staining based flow cytometry analysis (reference value: 92.8 %); assay type: functional; conditions: read-out: Activity
# HCT-116 [24] = assay: Induction of apoptosis in human HCT-116 cells assessed as early apoptotic cells at 1 uM incubated for 48 hrs by Annexin V-PE/7-AAD staining based flow cytometry analysis (reference value: 6.78 %); assay type: functional
# HCT-116 [25] = assay: Induction of apoptosis in human HCT-116 cells assessed as late apoptotic cells at 1 uM incubated for 48 hrs by Annexin V-PE/7-AAD staining based flow cytometry analysis (reference value: 0.39 %); assay type: functional
# HCT-116 [26] = assay: Induction of apoptosis in human HCT-116 cells assessed as necrotic cells at 1 uM incubated for 48 hrs by Annexin V-PE/7-AAD staining based flow cytometry analysis (reference value: 0 %); assay type: functional
# HCT-116 [27] = assay: Induction of apoptosis in human HCT-116 cells assessed as increase in Cleaved-PARP protein expression level by Western blotting analysis; assay type: functional, cell-based; conditions: dose 0.25-1 µM
# HCT-116 [28] = assay: Induction of apoptosis in human HCT-116 cells assessed as increase in Bax protein expression level by Western blotting analysis; assay type: functional, cell-based; conditions: dose 0.25-1 µM
# HCT-116 [29] = assay: Induction of apoptosis in human HCT-116 cells assessed as increase in Cleaved-Caspase-3 protein expression level by Western blotting analysis; assay type: functional, cell-based; conditions: dose 0.25-1 µM
# HCT-116 [30] = assay: Induction of apoptosis in human HCT-116 cells assessed as decrease in Bcl-2 protein expression level by Western blotting analysis; assay type: functional, cell-based; conditions: dose 0.25-1 µM
# HCT-116 [31] = assay: Induction of apoptosis in human HCT-116 cells assessed as decrease in Caspase-3 protein expression level by Western blotting analysis; assay type: functional, cell-based; conditions: dose 0.25-1 µM
# HCT-116 [32] = assay: Induction of apoptosis in human HCT-116 cells assessed as increase in accumulation of cells at S phase at 0.25 to 1 uM incubated for 48 hrs by propidium iodide staining based flow cytometry analysis (reference value: 24.67%); assay type: functional; conditions: dose 0.25-1 µM
# HCT-116 [33] = assay: […] in human HCT-116 cells assessed as decrease in accumulation of cells at G2/M phase at 0.25 to 1 uM incubated for 48 hrs by propidium iodide staining based flow cytometry analysis (Rvb =34.99%); assay type: functional; design: scale not given: the % may be the effect or the level left; conditions: dose 0.25-1 µM
# HCT-116 [34] = assay: Antiproliferative activity against human HCT-116 cells transfected with PARP1 siRNA assessed as inhibition of cell viability at 0.5 uM incubated for 72 hrs by CCK8 assay; assay type: functional, cell-based
# HCT-116 [35] = assay: Antitumor activity against human HCT-116 cells xenografted in BALB/c nude mouse assessed as reduction in tumor weight at 10 mg/kg, ip administered for 14 days relative to control; assay type: functional, organism-based; conditions: time 14.0 day
# [36] = Toxicity in BALB/c nude mouse xenografted with human HCT-116 cells assessed as change in body weight at 20 mg/kg, ip administered for 14 days; assay type: organism-based; conditions: in vivo, 336 h, time 14 day
# HCT-116 [37] = assay: Antitumor activity against human HCT-116 cells xenografted in BALB/c nude mouse assessed as suppression of tumor growth at 10 mg/kg, ip administered for 14 days relative to control; assay type: functional, organism-based; conditions: time 14.0 day
# [38] = Toxicity in BALB/c nude mouse xenografted with human HCT-116 cells assessed as tissue morphology at 20 mg/kg, ip administered for 14 days by hematoxylin and eosin staining based assay; assay type: organism-based; conditions: in vivo, 336 h, time 14 day
# [39] = target: T1, Poly [ADP-ribose] polymerase 1; conditions: dose 10.0 nM, time 10.0 min
structure (smiles),measurement,setting,value
O=C1Nc2ccccc2/C1=C1/Nc2ccccc2/C1=N\OCCCC(=O)N1CCN(C(=O)c2ccc(Cc3n[nH]c(=O)c4ccccc34)cc2F)CC1,IC50,NCM460,> 60 µM
same,IC50,A549,3.26 µM
same,IC50,MCF7,1600 nM
same,IC50,MV4-11,520 nM
same,IC50,HCT-116 [1],310 nM
same,IC50,[2],1.89 nM
same,inhibition in vivo at 20 mg/kg,HCT-116 [3],86.6%
same,inhibition in vivo at 10 mg/kg,HCT-116 [4],75.9%
same,half-life,[5],349 min
same,Cmax,[6],6040 ng/mL
same,AUCt,[7],5900 ng·h/mL
same,AUC,[8],6450 ng·h/mL
same,CL,[9],51.65 mL/min/kg
same,Activity,HCT-116 [10],Dose-Dependent Effect
same,Activity,HCT-116 [11],Active
same,inhibition,[12],Dose-Dependent Effect
same,Activity,HCT-116 [13],Dose-Dependent Effect
same,Activity,HCT-116 [14],Dose-Dependent Effect
same,viability at 0.25 µM,HCT-116 [15],89.3%
same,Activity,HCT-116 [16],8.64%
same,Activity,HCT-116 [17],1.76%
same,Activity,HCT-116 [18],0.12%
same,viability at 0.5 µM,HCT-116 [19],83.7%
same,Activity,HCT-116 [20],14.6%
same,Activity,HCT-116 [21],1.05%
same,Activity,HCT-116 [22],0.11%
same,viability at 1 µM,HCT-116 [23],69.4%
same,Activity,HCT-116 [24],22.7%
same,Activity,HCT-116 [25],7.01%
same,Activity,HCT-116 [26],0.28%
same,Activity,HCT-116 [27],Dose-Dependent Effect
same,Activity,HCT-116 [28],Dose-Dependent Effect
same,Activity,HCT-116 [29],Dose-Dependent Effect
same,Activity,HCT-116 [30],Dose-Dependent Effect
same,Activity,HCT-116 [31],Dose-Dependent Effect
same,Activity,HCT-116 [32],41.03%
same,Activity,HCT-116 [33],10.5%
same,Activity,HCT-116 [34],inactive
same,Activity,HCT-116 [35],Active
same,Activity,[36],Non-Toxic
same,Activity,HCT-116 [37],Active
same,Activity,[38],Non-Toxic
same,inhibition,[39],64.8%
